Results taken from US20100317624A1 (ASTRAZENECA AB, priority 2009, published 2010).

Molecular target: S. aureus GyrB ATPase (Staphylococcus aureus, UniProt P0A0K8)
Assay: S. aureus GyrB ATPase inhibition (ammonium molybdate/malachite green phosphate detection)
Type: biochemical
Details: compound at 1 μM; inhibition of S. aureus GyrB ATPase; read-out: Percent Inhibition (1 μM)
Experimental: S. aureus GyrB ATPase Inhibition Activity: Compounds may be tested for inhibition of S. aureus GyrB ATPase activity using an ammonium molybdate/malachite green-based phosphate detection assay (Lanzetta, P. A., L. J. Alvarez, P. S. Reinach, and O. A. Candia, 1979, 100: 95-97). Assays can be performed in multiwell plates in 30 μl reactions containing: 50 mM Hepes buffer pH 7.5, 75 mM ammonium acetate, 8.0 mM magnesium chloride, 0.5 mM ethylenediaminetetraacetic acid, 5% glycerol, 1.0 mM 1,4-Dithio-DL-threitol, 200 nM bovine serum albumin, 1.0 μg/ml sheared salmon sperm DNA, 250 pM E. coli GyrA, 250 pM S. aureus GyrB, 250 μM ATP, and compound in dimethylsulfoxide. Reactions can be quenched with 30 μl of ammonium molybdate/malachite green detection reagent containing 1.2 mM malachite green hydrochloride, 8.5 mM ammonium molybdate tetrahydrate, and 1 M hydrochloric acid. Plates can be read in an absorbance plate reader at 650 nm and percent inhibition values can be calculated using dimethylsulfoxide (2%)-containing reactions as 0% inhibition and EDTA-containing ([…]) reactions as 100% inhibition controls. An IC50 measurement of compound potency for each compound can be determined from reactions performed in the presence of 10 different compound concentrations.

S. aureus GyrB ATPase, sequence (P0AES4 whole entry): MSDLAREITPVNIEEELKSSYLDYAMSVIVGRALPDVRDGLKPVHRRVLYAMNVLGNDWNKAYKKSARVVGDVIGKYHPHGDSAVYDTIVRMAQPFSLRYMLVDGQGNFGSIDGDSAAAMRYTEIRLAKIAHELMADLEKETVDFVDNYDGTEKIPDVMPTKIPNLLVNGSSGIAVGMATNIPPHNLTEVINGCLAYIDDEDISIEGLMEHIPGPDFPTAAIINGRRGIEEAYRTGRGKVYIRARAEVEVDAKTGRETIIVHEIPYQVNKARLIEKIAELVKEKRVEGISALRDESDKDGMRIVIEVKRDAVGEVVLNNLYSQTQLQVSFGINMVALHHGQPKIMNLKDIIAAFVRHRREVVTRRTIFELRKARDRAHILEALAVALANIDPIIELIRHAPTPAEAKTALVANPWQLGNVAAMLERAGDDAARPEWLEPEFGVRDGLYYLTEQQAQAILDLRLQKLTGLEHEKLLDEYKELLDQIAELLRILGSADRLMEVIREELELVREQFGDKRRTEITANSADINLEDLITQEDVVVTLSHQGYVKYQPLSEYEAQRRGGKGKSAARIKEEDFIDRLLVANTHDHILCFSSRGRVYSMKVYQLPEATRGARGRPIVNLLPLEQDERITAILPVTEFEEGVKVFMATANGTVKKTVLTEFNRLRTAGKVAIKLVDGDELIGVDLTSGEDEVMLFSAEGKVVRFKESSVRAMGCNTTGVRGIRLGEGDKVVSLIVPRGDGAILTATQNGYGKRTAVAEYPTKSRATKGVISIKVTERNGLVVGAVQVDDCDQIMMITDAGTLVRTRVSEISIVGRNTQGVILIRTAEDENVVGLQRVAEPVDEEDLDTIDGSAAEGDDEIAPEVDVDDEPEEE
S. aureus GyrB ATPase, sequence (P0A0K8 whole entry): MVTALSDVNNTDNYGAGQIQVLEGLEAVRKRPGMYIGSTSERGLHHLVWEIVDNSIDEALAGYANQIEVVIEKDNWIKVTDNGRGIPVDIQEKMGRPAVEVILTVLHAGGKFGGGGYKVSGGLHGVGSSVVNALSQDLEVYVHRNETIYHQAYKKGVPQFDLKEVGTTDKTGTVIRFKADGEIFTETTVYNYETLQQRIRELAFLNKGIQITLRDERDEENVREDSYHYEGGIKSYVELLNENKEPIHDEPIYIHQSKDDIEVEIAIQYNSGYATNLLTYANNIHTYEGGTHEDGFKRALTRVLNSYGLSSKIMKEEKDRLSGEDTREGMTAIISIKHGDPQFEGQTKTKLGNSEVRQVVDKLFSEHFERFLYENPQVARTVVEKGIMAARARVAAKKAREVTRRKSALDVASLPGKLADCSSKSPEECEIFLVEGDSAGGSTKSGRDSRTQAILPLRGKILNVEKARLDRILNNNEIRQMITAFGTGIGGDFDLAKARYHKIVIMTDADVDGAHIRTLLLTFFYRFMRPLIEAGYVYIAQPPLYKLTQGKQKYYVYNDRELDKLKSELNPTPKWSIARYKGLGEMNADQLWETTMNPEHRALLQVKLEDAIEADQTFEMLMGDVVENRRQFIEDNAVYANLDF

In the case of `CCNC(=O)Nc1cc(-c2nc(C(F)(F)F)cs2)c(-c2cc3c(=O)c(C(=O)O)cn(CC)c3cc2N2CCN(C)CC2)cn1` [Example 22, 1-ethyl-6-(6-(3-ethylureido)-4-(4-(trifluoromethyl)thiazol-2-yl)pyridin-3-yl)-7-(4-methylpiperazin-1-yl)-4-oxo-1,4-dihydroquinoline-3-carboxylic acid], the inhibition at 1 µM was 103%.
With `CCNC(=O)Nc1cc(-c2nc(-c3ccccc3)cs2)c(-c2cc3c(=O)c(C(=O)O)cn(C[C@@H]4CCCN4CC)c3cc2OCCN(C)C)cn1` [Example 23, 7-(2-(dimethylamino)ethoxy)-1-(((S)-1-ethylpyrrolidin-2-yl)methyl)-6-(6-(3-ethylureido)-4-(4-phenylthiazol-2-yl)pyridin-3-yl)-4-oxo-1,4-dihydroquinoline-3-carboxylic acid] the inhibition at 1 µM was 100%.
In the case of `CCNC(=O)Nc1cc(-c2nc(-c3ccccc3)cs2)c(-c2cc3c(=O)c(C(=O)O)cn(CCN(C)C)c3cc2OCCN(C)C)cn1` [Example 24, 7-(2-(dimethylamino)ethoxy)-1-(2-(dimethylamino)ethyl)-6-(6-(3-ethylureido)-4-(4-phenylthiazol-2-yl)pyridin-3-yl)-4-oxo-1,4-dihydroquinoline-3-carboxylic acid], the inhibition at 1 µM was 107%.
Molecule `CCNC(=O)Nc1cc(-c2nc(C(F)(F)F)cs2)c(-c2cc3c(=O)c(C(=O)O)cn(C[C@@H]4CCCN4CC)c3cc2OCCN(C)C)cn1` [Example 25, 7-(2-(dimethylamino)ethoxy)-1-(((S)-1-ethylpyrrolidin-2-yl)methyl)-6-(6-(3-ethylureido)-4-(4-(trifluoromethyl)thiazol-2-yl)pyridin-3-yl)-4-oxo-1,4-dihydroquinoline-3-carboxylic acid] has an inhibition at 1 µM of 98%.
For `CCNC(=O)Nc1cc(-c2nc(C(F)(F)F)cs2)c(-c2cc3c(=O)c(C(=O)O)cn(CCN(C)C)c3cc2OCCN(C)C)cn1` [Example 26, 7-(2-(dimethylamino)ethoxy)-1-(2-(dimethylamino)ethyl)-6-(6-(3-ethylureido)-4-(4-(trifluoromethyl)thiazol-2-yl)pyridin-3-yl)-4-oxo-1,4-dihydroquinoline-3-carboxylic acid], the inhibition at 1 µM was 108%.
With `CCNC(=O)Nc1cc(-c2nc(C(F)(F)F)cs2)c(-c2cc3c(=O)c(C(=O)O)cn([C@H](CO)C(C)(C)C)c3cc2F)cn1` [Example 27, 6-(6-(3-ethylureido)-4-(4-(trifluoromethyl)thiazol-2-yl)pyridin-3-yl)-7-fluoro-1-((S)-1-hydroxy-3,3-dimethylbutan-2-yl)-4-oxo-1,4-dihydroquinoline-3-carboxylic acid] the inhibition at 1 µM was 125%.
`CCNC(=O)Nc1cc(-c2nc(C(F)(F)F)cs2)c(-c2cc3c(=O)c(C(=O)O)cn([C@H](CO)C(C)C)c3cc2OC)cn1` [Example 28, 6-(6-(3-ethylureido)-4-(4-(trifluoromethyl)thiazol-2-yl)pyridin-3-yl)-1-((S)-1-hydroxy-3-methylbutan-2-yl)-7-methoxy-4-oxo-1,4-dihydroquinoline-3-carboxylic acid] was tested, and the inhibition at 1 µM was 104%.
`CCNC(=O)Nc1cc(-c2nc(C(F)(F)F)cs2)c(-c2ccc3c(c2)c(=O)c(C(=O)N(C)C)cn3CCN(C)C)cn1` [Example 29, 1-[2-(Dimethylamino)ethyl]-6-{6-[(ethylcarbamoyl)amino]-4-[4-(trifluoromethyl)-1,3-thiazol-2-yl]pyridin-3-yl}-N,N-dimethyl-4-oxo-1,4-dihydroquinoline-3-carboxamide] gave an inhibition at 1 µM of 93%.
For `CCNC(=O)Nc1cc(-c2nc(C(F)(F)F)cs2)c(-c2ccc3c(c2)c(=O)c(C(=O)N(C)C)cn3CCN2CCN(C)CC2)cn1` [Example 30, 6-{6-[(Ethylcarbamoyl)amino]-4-[4-(trifluoromethyl)-1,3-thiazol-2-yl]pyridin-3-yl}-N,N-dimethyl-1-[2-(4-methylpiperazin-1-yl)ethyl]-4-oxo-1,4-dihydroquinoline-3-carboxamide], the inhibition at 1 µM was 98%.
With `CCNC(=O)Nc1cc(-c2nc(C(F)(F)F)cs2)c(-c2ccc3c(c2)c(=O)c(C(=O)N(C)C)cn3CC2CN3CCN2CC3)cn1` (centres unmarked) [Example 31, 1-(1,4-diazabicyclo[2.2.2]oct-2-ylmethyl)-6-{6-[(ethylcarbamoyl)amino]-4-[4-(trifluoromethyl)-1,3-thiazol-2-yl]pyridin-3-yl}-N,N-dimethyl-4-oxo-1,4-dihydroquinoline-3-carboxamide] the inhibition at 1 µM was 114%.
`CCNC(=O)Nc1cc(-c2nc(C(F)(F)F)cs2)c(-c2ccc3c(c2)c(=O)c(C(=O)N(C)C)cn3C[C@@H]2CCCNC2)cn1` [Example 32, 6-{6-[(Ethylcarbamoyl)amino]-4-[4-(trifluoromethyl)-1,3-thiazol-2-yl]pyridin-3-yl}-N,N-dimethyl-4-oxo-1-[(3R)-piperidin-3-ylmethyl]-1,4-dihydroquinoline-3-carboxamide] was tested, and the inhibition at 1 µM was 104%.
`CCNC(=O)Nc1cc(-c2nc(C(F)(F)F)cs2)c(-c2ccc3c(c2)c(=O)c(C(=O)N(C)C)cn3C[C@H]2CCCNC2)cn1` [Example 33, 6-{6-[(Ethylcarbamoyl)amino]-4-[4-(trifluoromethyl)-1,3-thiazol-2-yl]pyridin-3-yl}-N,N-dimethyl-4-oxo-1-[(3S)-piperidin-3-ylmethyl]-1,4-dihydroquinoline-3-carboxamide] was tested, and the inhibition at 1 µM was 104%.
Work on `CCNC(=O)Nc1cc(-c2nc(C(F)(F)F)cs2)c(-c2ccc3c(c2)c(=O)c(C(=O)O)cn3CCN)cn1` [Example 34, 1-(2-Aminoethyl)-6-{6-[(ethylcarbamoyl)amino]-4-[4-(trifluoromethyl)-1,3-thiazol-2-yl]pyridin-3-yl}-4-oxo-1,4-dihydroquinoline-3-carboxylic acid] yielded an inhibition at 1 µM of 112%.
For `CCNC(=O)Nc1cc(-c2nc(C(F)(F)F)cs2)c(-c2ccc3c(c2)c(=O)c(C(=O)O)cn3[C@H]2[C@@H]3CN(C)C[C@@H]32)cn1` [Example 35, 6-{6-[(ethylcarbamoyl)amino]-4-[4-(trifluoromethyl)-1,3-thiazol-2-yl]pyridin-3-yl}-1-[(1R,5S,6s)-3-methyl-3-azabicyclo[3.1.0]hex-6-yl]-4-oxo-1,4-dihydroquinoline-3-carboxylic acid], the inhibition at 1 µM was 108%.
For `CCNC(=O)Nc1cc(-c2nc(C(F)(F)F)cs2)c(-c2ccc3c(c2)c(=O)c(C(=O)O)cn3C[C@@H]2CCN(CCN3CCN(C)CC3)C2)cn1` [Example 36, (R)-6-(6-(3-ethylureido)-4-(4-(trifluoromethyl)thiazol-2-yl)pyridin-3-yl)-1-((1-(2-(4-methylpiperazin-1-yl)ethyl)pyrrolidin-3-yl)methyl)-4-oxo-1,4-dihydroquinoline-3-carboxylic acid], the inhibition at 1 µM was 112%.
Work on `CCNC(=O)Nc1cc(-c2nc(C(F)(F)F)cs2)c(-c2ccc3c(c2)c(=O)c(C(=O)O)cn3C[C@H]2CCN(CCN3CCN(C)CC3)C2)cn1` [Example 37, (S)-6-(6-(3-ethylureido)-4-(4-(trifluoromethyl)thiazol-2-yl)pyridin-3-yl)-1-((1-(2-(4-methylpiperazin-1-yl)ethyl)pyrrolidin-3-yl)methyl)-4-oxo-1,4-dihydroquinoline-3-carboxylic acid] yielded an inhibition at 1 µM of 100%.
Work on `CCNC(=O)Nc1cc(-c2nc(C(F)(F)F)cs2)c(-c2ccc3c(c2)c(=O)c(C(=O)OCOC(C)=O)cn3C(COC)COC)cn1` [Example 38, Acetoxymethyl 1-(1,3-dimethoxypropan-2-yl)-6-(6-(3-ethylureido)-4-(4-(trifluoromethyl)thiazol-2-yl)pyridin-3-yl)-4-oxo-1,4-dihydroquinoline-3-carboxylate] yielded an inhibition at 1 µM of 105%.
